Assay results as given in ChEMBL document CHEMBL1201862, “PubChem BioAssay data set” (2004).
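Values below derive from 48-hour exposures of cells grown in 96-well plates, with endpoints linearly interpolated between the two concentrations bracketing the appropriate inhibition level. The concentration for 50% growth inhibition is given as GI50.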 Calls of active or inactive are those of the source. No stated cut-off is given here; in the data, active = GI50 up to about 1.1 µM and inactive = higher.

Columns and labels:
Assay in all cases: DTP human tumour cell line panel, 48 h
[1] = tested on: U-251
[2] = tested on: KM12
[3] = tested on: NCI-H23
[4] = tested on: NCI-H522
[5] = tested on: RPMI-8226
[6] = tested on: A549
[7] = tested on: UACC-62
[8] = tested on: UO-31
[9] = tested on: SK-MEL-5
[10] = tested on: Malme-3M
[11] = tested on: MCF7
[12] = tested on: OVCAR-4
[13] = tested on: CAKI-1
[14] = tested on: SF-268
[15] = tested on: RXF 393
[16] = tested on: SK-OV-3
[17] = tested on: TK-10
[18] = tested on: HCT-15
[19] = tested on: MDA-N
[20] = tested on: HCC 2998

O=c1[nH]nc(N/N=C\c2ccc(Cl)cc2)c2ccccc12
GI50 [1]: 20.5 µM (inactive)
GI50 [2]: 21 µM (inactive)
GI50 [3]: 23 µM (inactive)
GI50 [4]: 16.6 µM (inactive)
GI50 [5]: 25.7 µM (inactive)
GI50 [6]: 20.1 µM (inactive)
GI50 [7]: 20.5 µM (inactive)
GI50 [8]: 18.6 µM (inactive)
GI50 [9]: 16.1 µM (inactive)
GI50 [10]: 22 µM (inactive)
GI50 [11]: 22.4 µM (inactive)
GI50 [12]: 52.7 µM (inactive)
GI50 [13]: 18.3 µM (inactive)
GI50 [14]: 23.2 µM (inactive)
GI50 [15]: 25.4 µM (inactive)
GI50 [16]: 18.5 µM (inactive)
GI50 [17]: 32.5 µM (inactive)
GI50 [18]: 17.9 µM

CC(C)Oc1c(C2(c3ccccc3)SCCCS2)c(=O)c1=O
GI50 [1]: > 100 µM (inactive)
GI50 [2]: 50.2 µM (inactive)
GI50 [3]: > 100 µM (inactive)
GI50 [4]: 24.7 µM (inactive)
GI50 [6]: > 100 µM (inactive)
GI50 [7]: > 100 µM (inactive)
GI50 [8]: > 100 µM (inactive)
GI50 [19]: > 100 µM (inactive)
GI50 [9]: > 100 µM (inactive)
GI50 [11]: > 100 µM (inactive)
GI50 [12]: > 100 µM (inactive)
GI50 [13]: > 100 µM (inactive)
GI50 [14]: > 100 µM (inactive)
GI50 [15]: > 100 µM (inactive)
GI50 [16]: > 100 µM (inactive)
GI50 [17]: > 100 µM (inactive)
GI50 [18]: > 100 µM

COc1ccc(NC=O)c(C(O)CCNC(C)=O)c1 (centres undefined)
GI50 [1]: > 100 µM (inactive)
GI50 [2]: > 100 µM (inactive)
GI50 [3]: > 100 µM (inactive)
GI50 [4]: > 100 µM (inactive)
GI50 [5]: > 100 µM (inactive)
GI50 [6]: > 100 µM (inactive)
GI50 [7]: > 100 µM (inactive)
GI50 [8]: > 100 µM (inactive)
GI50 [19]: > 100 µM (inactive)
GI50 [9]: > 100 µM (inactive)
GI50 [11]: > 100 µM (inactive)
GI50 [12]: > 100 µM (inactive)
GI50 [13]: > 100 µM (inactive)
GI50 [14]: > 100 µM (inactive)
GI50 [15]: > 100 µM (inactive)
GI50 [16]: > 100 µM (inactive)
GI50 [17]: > 100 µM (inactive)
GI50 [18]: > 100 µM

COc1cc2c(cc1OC)C(c1ccccc1CCCCl)=NCC2
GI50 [1]: 8.07 µM (inactive)
GI50 [2]: 55.6 µM (inactive)
GI50 [3]: 42.5 µM (inactive)
GI50 [4]: 20.8 µM (inactive)
GI50 [5]: 14.3 µM (inactive)
GI50 [6]: > 100 µM (inactive)
GI50 [7]: 40.9 µM (inactive)
GI50 [8]: 85.9 µM (inactive)
GI50 [9]: 23.3 µM (inactive)
GI50 [11]: 95.5 µM (inactive)
GI50 [12]: 91.4 µM (inactive)
GI50 [13]: > 100 µM (inactive)
GI50 [20]: 46.9 µM (inactive)
GI50 [14]: 58.2 µM (inactive)
GI50 [15]: > 100 µM (inactive)
GI50 [16]: > 100 µM (inactive)
GI50 [17]: > 100 µM (inactive)
GI50 [18]: > 100 µM

COc1ccc(/C=C/C(=O)C(C)(C)Br)cc1
GI50 [1]: 13.7 µM (inactive)
GI50 [2]: 16.1 µM (inactive)
GI50 [3]: 2.25 µM (inactive)
GI50 [4]: 1.22 µM (inactive)
GI50 [5]: 3.42 µM (inactive)
GI50 [6]: 20.3 µM (inactive)
GI50 [7]: 12.7 µM (inactive)
GI50 [8]: 4.27 µM (inactive)
GI50 [19]: 7.57 µM (inactive)
GI50 [9]: 14.7 µM (inactive)
GI50 [10]: 13.5 µM (inactive)
GI50 [11]: 5.11 µM (inactive)
GI50 [13]: 17.4 µM (inactive)
GI50 [14]: 15.2 µM (inactive)
GI50 [15]: 1.4 µM (inactive)
GI50 [16]: 22.2 µM (inactive)
GI50 [17]: 14.6 µM (inactive)
GI50 [18]: 2.62 µM

OCCN(CCO)c1ccc2c(-c3ccccc3)cc(N(CCO)CCO)nc2n1
GI50 [1]: > 100 µM (inactive)
GI50 [2]: > 100 µM (inactive)
GI50 [3]: > 100 µM (inactive)
GI50 [4]: > 100 µM (inactive)
GI50 [5]: > 100 µM (inactive)
GI50 [6]: > 100 µM (inactive)
GI50 [7]: > 100 µM (inactive)
GI50 [8]: > 100 µM (inactive)
GI50 [9]: > 100 µM (inactive)
GI50 [10]: > 100 µM (inactive)
GI50 [11]: > 100 µM (inactive)
GI50 [12]: > 100 µM (inactive)
GI50 [13]: > 100 µM (inactive)
GI50 [20]: > 100 µM (inactive)
GI50 [14]: > 100 µM (inactive)
GI50 [15]: > 100 µM (inactive)
GI50 [16]: > 100 µM (inactive)
GI50 [17]: > 100 µM (inactive)
GI50 [18]: > 100 µM

NC12CC3CC4C1CC1CC2C(C3)C4(N)C1
GI50 [1]: > 100 µM (inactive)
GI50 [2]: > 100 µM (inactive)
GI50 [3]: > 100 µM (inactive)
GI50 [4]: > 100 µM (inactive)
GI50 [6]: > 100 µM (inactive)
GI50 [7]: > 100 µM (inactive)
GI50 [8]: > 100 µM (inactive)
GI50 [19]: > 100 µM (inactive)
GI50 [9]: > 100 µM (inactive)
GI50 [10]: > 100 µM (inactive)
GI50 [11]: > 100 µM (inactive)
GI50 [12]: > 100 µM (inactive)
GI50 [13]: > 100 µM (inactive)
GI50 [14]: > 100 µM (inactive)
GI50 [15]: > 100 µM (inactive)
GI50 [16]: > 100 µM (inactive)
GI50 [17]: 50.7 µM (inactive)
GI50 [18]: > 100 µM

O=c1cc(NNc2cccc(F)c2)[nH]c(=O)[nH]1
GI50 [1]: 17.2 µM (inactive)
GI50 [2]: > 100 µM (inactive)
GI50 [3]: > 100 µM (inactive)
GI50 [4]: 18.3 µM (inactive)
GI50 [5]: 16.7 µM (inactive)
GI50 [6]: > 100 µM (inactive)
GI50 [7]: 35 µM (inactive)
GI50 [8]: 29.4 µM (inactive)
GI50 [19]: 80.2 µM (inactive)
GI50 [9]: > 100 µM (inactive)
GI50 [10]: 19.4 µM (inactive)
GI50 [12]: > 100 µM (inactive)
GI50 [13]: 16.4 µM (inactive)
GI50 [20]: 95.9 µM (inactive)
GI50 [14]: > 100 µM (inactive)
GI50 [15]: 20.5 µM (inactive)
GI50 [16]: > 100 µM (inactive)
GI50 [17]: 14.2 µM (inactive)
GI50 [18]: 16.9 µM

COc1cc2c(cc1OCCCN1CCN(C)CC1)N=C[C@@H]1CCCN1C2=O
GI50 [1]: 0.935 µM (active)
GI50 [2]: 1.57 µM (inactive)
GI50 [4]: 0.179 µM (active)
GI50 [5]: 1.04 µM (active)
GI50 [6]: 2.37 µM (inactive)
GI50 [7]: 1.78 µM (inactive)
GI50 [8]: 2.14 µM (inactive)
GI50 [9]: 2.04 µM (inactive)
GI50 [10]: 2.21 µM (inactive)
GI50 [11]: 1.22 µM (inactive)
GI50 [12]: 2.15 µM (inactive)
GI50 [13]: 1.25 µM (inactive)
GI50 [14]: 3.03 µM (inactive)
GI50 [15]: 1.87 µM (inactive)
GI50 [16]: 2.84 µM (inactive)
GI50 [17]: 3.34 µM (inactive)
GI50 [18]: 2.25 µM

CSCCCNC(=O)c1csc(-c2csc(C(CNC(=O)OC(C)(C)C)CNC(=O)OC(C)(C)C)n2)n1
GI50 [1]: 25.6 µM (inactive)
GI50 [2]: 31 µM (inactive)
GI50 [3]: 36 µM (inactive)
GI50 [4]: 18.6 µM (inactive)
GI50 [5]: 14.3 µM (inactive)
GI50 [7]: 18.1 µM (inactive)
GI50 [8]: 31.8 µM (inactive)
GI50 [19]: 51.4 µM (inactive)
GI50 [9]: 26.1 µM (inactive)
GI50 [11]: 57.9 µM (inactive)
GI50 [12]: 26.9 µM (inactive)
GI50 [13]: 59.6 µM (inactive)
GI50 [14]: 76.2 µM (inactive)
GI50 [15]: 68.5 µM (inactive)
GI50 [16]: 60.3 µM (inactive)
GI50 [17]: 66.1 µM (inactive)
GI50 [18]: 43.4 µM

CC(C(O)c1ccccc1)[N+](=O)[O-] (centres undefined)
GI50 [1]: 16.6 µM (inactive)
GI50 [2]: 19.4 µM (inactive)
GI50 [3]: 32.8 µM (inactive)
GI50 [4]: 8.71 µM (inactive)
GI50 [5]: 2.9 µM (inactive)
GI50 [6]: 17.7 µM (inactive)
GI50 [7]: 20.2 µM (inactive)
GI50 [8]: 7.69 µM (inactive)
GI50 [9]: 17.9 µM (inactive)
GI50 [10]: 21.7 µM (inactive)
GI50 [11]: 3.64 µM (inactive)
GI50 [12]: 24.7 µM (inactive)
GI50 [13]: 14.2 µM (inactive)
GI50 [20]: 10.9 µM (inactive)
GI50 [14]: 31.5 µM (inactive)
GI50 [15]: 10.9 µM (inactive)
GI50 [17]: 28.6 µM (inactive)
GI50 [18]: 11.5 µM

COc1ccc(CNc2nc(NCc3ccc(OC)cc3)nc(NC3CCCC3)n2)cc1
GI50 [1]: 4.5 µM (inactive)
GI50 [2]: 0.28 µM (active)
GI50 [3]: 2.99 µM (inactive)
GI50 [4]: 2.99 µM (inactive)
GI50 [5]: 2.24 µM (inactive)
GI50 [6]: 5.26 µM (inactive)
GI50 [8]: 6.43 µM (inactive)
GI50 [9]: 3.76 µM (inactive)
GI50 [10]: 8.53 µM (inactive)
GI50 [11]: 3.31 µM (inactive)
GI50 [12]: > 25.4 µM (inactive)
GI50 [13]: 4.02 µM (inactive)
GI50 [14]: 7.18 µM (inactive)
GI50 [15]: 0.665 µM (active)
GI50 [16]: 5.28 µM (inactive)
GI50 [17]: 3.26 µM (inactive)
GI50 [18]: 3.19 µM
